Source: patent US20260070945A1, “MACROCYCLIC IMMUNOMODULATORS” (Bristol-Myers Squibb Company, priority 2022, published 2026)
Where a SMILES comes first, the peptide text is derived from it. Bridges are numbered along the chain shown (N, C = ends). [ ]: non-standard residue; d: D form. The star is where a group is joined. Tyr(3,5-F2) = N[C@@H](Cc1cc(F)c(O)c(F)c1)C(=O)O; Phe(4-COOH) = N[C@@H](Cc1ccc(C(=O)O)cc1)C(=O)O; Bip = N[C@@H](Cc1ccc(-c2ccccc2)cc1)C(=O)O; Phe(4-CN) = N#Cc1ccc(C[C@H](N)C(=O)O)cc1; Phe(3-Me) = Cc1cccc(C[C@H](N)C(=O)O)c1; Phe(2-F) = N[C@@H](Cc1ccccc1F)C(=O)O; Val(3-OH) = CC(C)(O)[C@H](N)C(=O)O; 4Pal = N[C@@H](Cc1ccncc1)C(=O)O; Cha = N[C@@H](CC1CCCCC1)C(=O)O; Carboxymethyl = O=C(O)C*; NMeA = CN[C@@H](C)C(=O)O; Aun = NCCCCCCCCCCC(=O)O; Dab = NCC[C@H](N)C(=O)O

Target: T1, PD-1/PD-L1 interaction (PE-labeled human PD-L1-Ig binding to Jurkat cell line over-expressing human PD-1) (Homo sapiens, UniProt Q15116)
T1 construct: expressed in transfected cells; host or cells: Jurkat
Experiment: Jurkat-PD-1 Cell Binding High-Content Screening Assay (CBA)
Conditions: Jurkat-hPD-1 cells, PE-labeled PD-L1-Ig 20 nM final; read-out: Jurkat HPD1 PDL1 IC50
How it was run: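 Compound is added first to the PD-1-expressing Jurkat cells and held 2 h at 37 °C in serum-containing DMEM. The fluorescent PD-L1 fusion follows at 20 nM final for 1 h. Fixed, Hoechst-stained cells are then imaged for bound label.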

T1 sequence (Q15116 25-288): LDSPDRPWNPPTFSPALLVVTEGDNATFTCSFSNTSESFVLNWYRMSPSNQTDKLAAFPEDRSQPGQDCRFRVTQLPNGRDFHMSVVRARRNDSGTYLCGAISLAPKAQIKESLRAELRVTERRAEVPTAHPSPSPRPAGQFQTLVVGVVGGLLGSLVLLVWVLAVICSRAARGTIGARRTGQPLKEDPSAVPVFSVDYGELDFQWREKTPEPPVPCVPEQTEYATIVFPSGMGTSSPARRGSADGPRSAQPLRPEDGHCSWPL

`COc1ccc(C[C@@H]2NC(=O)CSC[C@@H](C(=O)N[C@@H](CCN)C(=O)NCCCCCCCCCCC(=O)O)NC(=O)[C@H](CO)NC(=O)[C@H](C(C)(C)O)NC(=O)[C@H](CC3CCCCC3)NC(=O)[C@H](CCN)NC(=O)[C@@H](CC(C)C)NC(=O)[C@H](C)N(C)C(=O)[C@H](Cc3ccc(OCC(=O)O)cc3)NC(=O)[C@H](Cc3ccc(-c4ccccc4)cc3)NC(=O)[C@H](Cc3ccc(OCC(=O)O)cc3)NC(=O)[C@H](Cc3cccc(C)c3)NC(=O)[C@H](CC(=O)O)NC(=O)[C@H](Cc3ccc(OCC(=O)O)cc3)NC2=O)cc1` [Example 1286] ({CH2CO}-Y(Me)Y(Carboxymethyl)D[Phe(3-Me)]Y(Carboxymethyl)[Bip]Y(Carboxymethyl)[NMeA][dL][Dab][Cha][Val(3-OH)]SC[Dab][Aun]-OH; thioether N-14) and `Cc1cccc(C[C@@H]2NC(=O)[C@H](CC(=O)O)NC(=O)[C@H](Cc3ccc(OCC(=O)O)cc3)NC(=O)[C@H](Cc3ccc(C#N)cc3)NC(=O)CSC[C@@H](C(=O)N[C@@H](CCN)C(=O)NCCCCCCCCCCC(=O)O)NC(=O)[C@H](CO)NC(=O)[C@H](C(C)(C)O)NC(=O)[C@H](CC3CCCCC3)NC(=O)[C@H](CCN)NC(=O)[C@@H](CC(C)C)NC(=O)[C@H](C)N(C)C(=O)[C@H](Cc3ccc(OCC(=O)O)cc3)NC(=O)[C@H](Cc3ccc(-c4ccccc4)cc3)NC(=O)[C@H](Cc3ccc(OCC(=O)O)cc3)NC2=O)c1` [Example 1288] ({CH2CO}-[Phe(4-CN)]Y(Carboxymethyl)D[Phe(3-Me)]Y(Carboxymethyl)[Bip]Y(Carboxymethyl)[NMeA][dL][Dab][Cha][Val(3-OH)]SC[Dab][Aun]-OH; thioether N-14) are within 1.5-fold of each other in IC50: 0.0192 µM for the first, 0.0147 µM for the second.

Going from `Cc1cccc(C[C@@H]2NC(=O)[C@H](CC(=O)O)NC(=O)[C@H](Cc3ccc(OCC(=O)O)cc3)NC(=O)[C@H](Cc3ccncc3)NC(=O)CSC[C@@H](C(=O)N[C@@H](CCN)C(=O)NCCCCCCCCCCC(=O)O)NC(=O)[C@H](CO)NC(=O)[C@H](C(C)(C)O)NC(=O)[C@H](CC3CCCCC3)NC(=O)[C@H](CCN)NC(=O)[C@@H](CC(C)C)NC(=O)[C@H](C)N(C)C(=O)[C@H](Cc3ccc(OCC(=O)O)cc3)NC(=O)[C@H](Cc3ccc(-c4ccccc4)cc3)NC(=O)[C@H](Cc3ccc(OCC(=O)O)cc3)NC2=O)c1` [Example 1287] ({CH2CO}-[4Pal]Y(Carboxymethyl)D[Phe(3-Me)]Y(Carboxymethyl)[Bip]Y(Carboxymethyl)[NMeA][dL][Dab][Cha][Val(3-OH)]SC[Dab][Aun]-OH; thioether N-14) to `Cc1cccc(C[C@@H]2NC(=O)[C@H](CC(=O)O)NC(=O)[C@H](Cc3ccc(C(=O)O)cc3)NC(=O)[C@H](CCN)NC(=O)CSC[C@@H](C(=O)N[C@@H](CCN)C(=O)NCCCCCCCCCCC(=O)O)NC(=O)[C@H](CO)NC(=O)[C@H](C(C)(C)O)NC(=O)[C@H](CC3CCCCC3)NC(=O)[C@H](CCN)NC(=O)[C@@H](CC(C)C)NC(=O)[C@H](C)N(C)C(=O)[C@H](Cc3ccc(OCC(=O)O)cc3)NC(=O)[C@H](Cc3ccc(-c4ccccc4)cc3)NC(=O)[C@H](Cc3ccccc3F)NC2=O)c1` [Example 1289] ({CH2CO}-[Dab][Phe(4-COOH)]D[Phe(3-Me)][Phe(2-F)][Bip]Y(Carboxymethyl)[NMeA][dL][Dab][Cha][Val(3-OH)]SC[Dab][Aun]-OH; thioether N-14), the IC50 rises from 0.009 µM to 0.0324 µM (3.6-fold).

Work on `Cc1cccc(C[C@@H]2NC(=O)[C@H](CC(=O)O)NC(=O)[C@H](Cc3ccc(C(=O)O)cc3)NC(=O)[C@H](CCN)NC(=O)CSC[C@@H](C(=O)N[C@@H](CCN)C(=O)NCCCCCCCCCCC(=O)O)NC(=O)[C@H](CO)NC(=O)[C@H](C(C)(C)O)NC(=O)[C@H](CC3CCCCC3)NC(=O)[C@H](CCN)NC(=O)[C@@H](CC(C)C)NC(=O)[C@H](C)N(C)C(=O)[C@H](Cc3ccc(OCC(=O)O)cc3)NC(=O)[C@H](Cc3ccc(-c4ccccc4)cc3)NC(=O)[C@H](Cc3cc(F)c(O)c(F)c3)NC2=O)c1` [Example 1290] ({CH2CO}-[Dab][Phe(4-COOH)]D[Phe(3-Me)][Tyr(3,5-F2)][Bip]Y(Carboxymethyl)[NMeA][dL][Dab][Cha][Val(3-OH)]SC[Dab][Aun]-OH; thioether N-14) yielded an IC50 of 0.0201 µM.
